Test results from US9957252B2, “Metalloenzyme inhibitor compounds as fungicides” (Dow AgroSciences LLC, priority 2014, dated 2018).
Like-named read-outs stand apart in the source and are kept apart here.

Assay: Leaf blotch of wheat fungicidal activity, Type B assay (10% EC formulation in 0.1% Trycol 5941, track sprayer 200 L/ha), field isolate
Format: in vivo, Mycosphaerella graminicola on wheat plants (variety Yuma)
Details: Zymoseptoria tritici, 72 h, field isolate (Wellsbourne, England 2012), wheat seedlings (Yuma)
Description: Evaluation of Fungicidal Activity: Leaf Blotch of Wheat (Mycosphaerella graminicola; Anamorph: Septoria tritici; Bayer code SEPTTR):
For Type A assays, technical grades of the experimental fungicides in Table 4 below were dissolved in acetone, and then mixed with nine volumes of water containing 110 ppm Triton X-100. The fungicide solutions were applied onto wheat seedlings using an automated booth sprayer. For Type B assays, emulsifiable concentrate (EC) formulations of technical grades of experimental fungicides in Table 4 below were prepared at 10% (w/v), and then mixed with 150 volumes of 0.1% Trycol 5941. The fungicide solutions were applied onto wheat seedlings using an automated track sprayer at 200 L/ha. All sprayed plants were allowed to air dry prior to further handling.
Wheat plants (variety Yuma) were grown from seed in a greenhouse in 50% mineral soil/50% soil-less Metro mix until the first leaf was fully emerged, with 7-10 seedlings per pot. Prior to or after application of experimental fungicides, plants were inoculated either with spores of a standard laboratory SEPTTR isolate (SI SEPTTR) or with spores from a SEPTTR field isolate collected from Wellsbourne, England in 2012 (FI SEPTTR). After inoculation, the plants were kept for 3 days at 20° C. in 100% relative humidity (one day in a dark dew chamber followed by two days in a lighted dew chamber). Plants were then transferred to a 20° C. greenhouse for disease development. When disease symptoms were fully expressed on untreated plants, infection levels on treated plants were assessed on a scale of 0 to 100 percent disease severity. Percent disease control was calculated using the ratio of disease severity on treated plants relative to untreated plants.

[1] = 3 Day Curative, read-out: Disease control, FI SEPTTR Type B Assay (100 g/ha) 3DC
[2] = 3 Day Protectant, read-out: Disease control, FI SEPTTR Type B Assay (100 g/ha) 3DP

| Compound | pest or weed control at 100 g/ha [1] | pest or weed control at 100 g/ha [2] |
| --- | --- | --- |
| COc1ncncc1C(O)(c1ccc(-c2ccc(C3(C#N)CC3)cc2)cc1F)C(C)(C)C (centres unmarked) [Compound 100] | 80 to 100% | 80 to 100% |
| COc1ncncc1C(O)(c1ccc(-c2ccc(OC(F)(F)F)cc2)cc1F)C(C)(C)C (centres unmarked) [Compound 96] | 80 to 100% | 80 to 100% |
| CC(C)(C)C(O)(c1cncnc1)c1ccc(-c2ccc(C3(C#N)CC3)cc2)cc1F (centres unmarked) [Compound 75] | 80 to 100% | 80 to 100% |
| Cc1cc(-c2ccc(OC(F)(F)F)cn2)ccc1C(O)(c1cncnc1)C(C)(C)C (centres unmarked) [Compound 94, 2,2-dimethyl-1-(2-methyl-4-(5-(trifluoromethoxy)pyridin-2-yl)phenyl)-1-(pyrimidin-5-yl)propan-1-ol] | 80 to 100% | 80 to 100% |
| Cc1cc(-c2ccc(C(C)(C)C#N)cc2F)ccc1C(O)(c1cncnc1)C(C)(C)C (centres unmarked) [Compound 91] | 80 to 100% | 80 to 100% |
| CC(C)(C)C(O)(c1cncnc1)c1ccc(-c2ccc(OC(F)(F)F)cc2F)cc1Cl (centres unmarked) [Compound 104] | 80 to 100% | 80 to 100% |
| CC(C)(C)C(O)(c1cccnc1)c1ccc(-c2ccc(C#N)cc2)cc1Cl (centres unmarked) [Compound 68] | 60 to 79% | 80 to 100% |
| CC(C)(C)C(O)(c1cncnc1)c1ccc(-c2ccc(OC(F)(F)F)cc2F)cc1F (centres unmarked) [Compound 78] | 80 to 100% | 80 to 100% |
| CC(C)(C)C(O)(c1cccnc1)c1ccc(-c2ccc(CC#N)cc2)cc1Cl (centres unmarked) [Compound 69] | 40 to 59% | 80 to 100% |
| CC(C)(C)C(O)(c1cccnc1)c1ccc(-c2ccc(OCC(F)(F)F)cc2)cc1Cl (centres unmarked) [Compound 67] | 80 to 100% | 80 to 100% |
| CC(C)(C#N)c1ccc(-c2ccc(C(O)(c3cncnc3)C(C)(C)C)c(Cl)c2)cc1 (centres unmarked) [Compound 86] | 60 to 79% | 80 to 100% |
| COC(c1cncnc1)(c1ccc(-c2ccc(C(C)(C)C#N)cc2)cc1F)C(C)(C)C (centres unmarked) [Compound 85] | 80 to 100% | 80 to 100% |
| CC(C)(C#N)c1ccc(-c2ccc(C(O)(c3cccnc3)C(C)(C)C)c(Cl)c2)cc1 (centres unmarked) [Compound 71] | 80 to 100% | 80 to 100% |
| COC(c1cncnc1)(c1ccc(-c2ccc(OC(F)(F)F)cc2F)cc1F)C(C)(C)C (centres unmarked) [Compound 81] | 80 to 100% | 80 to 100% |
| COc1ncncc1C(O)(c1ccc(-c2ccc(OC(F)(F)F)cc2C)cc1F)C(C)(C)C (centres unmarked) [Compound 88] | 80 to 100% | 80 to 100% |
| Cc1cc(OC(F)(F)F)ccc1-c1ccc(C(O)(c2cccnc2)C(C)(C)C)c(Cl)c1 (centres unmarked) [Compound 73] | 40 to 59% | 80 to 100% |
| CC(C)(C)C(O)(c1cccnc1)c1ccc(-c2ccc(OC(F)F)cc2)cc1Cl (centres unmarked) [Compound 66] | < 40% | 80 to 100% |
| COc1ncncc1C(O)(c1ccc(-c2ccc(OCC(F)(F)F)nc2)cc1F)C(C)(C)C (centres unmarked) [Compound 87] | 80 to 100% | 80 to 100% |
| Cc1cc(OC(F)(F)F)ccc1-c1ccc(C(O)(c2cncnc2)C(C)(C)C)c(Cl)c1 (centres unmarked) [Compound 99] | 80 to 100% | 80 to 100% |
| COc1ncncc1C(O)(c1ccc(-c2ccc(C(C)(C)C#N)cc2)cc1F)C(C)(C)C (centres unmarked) [Compound 92] | 80 to 100% | 80 to 100% |

| Compound | pest or weed control at 100 g/ha [1] | pest or weed control at 100 g/ha [2] |
| --- | --- | --- |
| CC(C)(C)C(O)(c1cccnc1)c1ccc(-c2ccc(SC(F)(F)F)cc2)cc1Cl (centres unmarked) [Compound 65] | 80 to 100% | 80 to 100% |
| CC(C)(C)C(O)(c1cncnc1)c1ccc(-c2ccc(OC(F)(F)F)cn2)cc1F (centres unmarked) [Compound 102] | 80 to 100% | 80 to 100% |
| CC(C)(C)C(O)(c1cncnc1)c1ccc(-c2ccc(C3(C#N)CC3)cc2)cc1Cl (centres unmarked) [Compound 89] | 60 to 79% | 80 to 100% |
| COC(c1cncnc1)(c1ccc(-c2ccc(C3(C#N)CC3)cc2)cc1F)C(C)(C)C (centres unmarked) [Compound 84] | 80 to 100% | 80 to 100% |
| CC(C)(C#N)c1ccc(-c2ccc(C(O)(c3cncnc3)C(C)(C)C)c(F)c2)c(F)c1 (centres unmarked) [Compound 101] | 80 to 100% | 80 to 100% |
| CC(C)(C)C(O)(c1cccnc1)c1ccc(-c2ccc(OC(F)(F)F)cc2)cc1Cl (centres unmarked) [Compound 64] | 80 to 100% | 80 to 100% |
| COC(c1cncnc1)(c1ccc(-c2ccc(OC(F)(F)F)cc2)cc1F)C(C)(C)C (centres unmarked) [Compound 79, 5-(1-(3-fluoro-4′-(trifluoromethoxy)-[1,1′-biphenyl]-4-yl)-1-methoxy-2,2-dimethylpropyl)pyrimidine] | 80 to 100% | 80 to 100% |
| CC(C)(C)C(O)(c1cccnc1)c1ccc(-c2ccc(C3(C#N)CC3)cc2)cc1Cl (centres unmarked) [Compound 70] | 80 to 100% | 80 to 100% |
| Cc1cc(OC(F)(F)F)ccc1-c1ccc(C(O)(c2cncnc2)C(C)(C)C)c(F)c1 (centres unmarked) [Compound 74] | 80 to 100% | 80 to 100% |
| Cc1cc(C(C)(C)C#N)ccc1-c1ccc(C(O)(c2cncnc2)C(C)(C)C)c(F)c1 (centres unmarked) [Compound 105] | 80 to 100% | 80 to 100% |
| Cc1cc(-c2ccc(C3(C#N)CC3)cc2F)ccc1C(O)(c1cncnc1)C(C)(C)C (centres unmarked) [Compound 103] | 80 to 100% | 80 to 100% |
| CC(C)(C)C(O)(c1cncnc1)c1ccc(-c2ccc(C3(C#N)CC3)cc2F)cc1F (centres unmarked) [Compound 97] | 80 to 100% | 80 to 100% |
| COC(c1cncnc1)(c1ccc(-c2ccc(OCC(F)(F)F)cc2)cc1F)C(C)(C)C (centres unmarked) [Compound 83] | 80 to 100% | 80 to 100% |
| CC(C)(C)C(O)(c1cncnc1)c1ccc(-c2ccc(C3(C#N)CC3)cc2F)cc1Cl (centres unmarked) [Compound 106] | 60 to 79% | 80 to 100% |
| COC(c1cncnc1)(c1ccc(-c2ccc(OC(F)(F)F)cc2C)cc1F)C(C)(C)C (centres unmarked) [Compound 80] | 80 to 100% | 80 to 100% |
| CC(C)(C)c1ccc(-c2ccc(C(O)(c3cccnc3)C(C)(C)C)c(Cl)c2)cc1 (centres unmarked) [Compound 72] | 60 to 79% | 80 to 100% |
| CC(C)(C#N)c1ccc(-c2ccc(C(O)(c3cncnc3)C(C)(C)C)c(Cl)c2)c(F)c1 (centres unmarked) [Compound 95] | 80 to 100% | 80 to 100% |
| CC(C)(C)C(O)(c1cncnc1)c1ccc(-c2ccc(OCC(F)(F)F)nc2)cc1F (centres unmarked) [Compound 76] | 80 to 100% | 60 to 79% |
| CC(C)(C#N)c1ccc(-c2ccc(C(O)(c3cncnc3)C(C)(C)C)c(F)c2)cc1 (centres unmarked) [Compound 77] | 80 to 100% | 80 to 100% |
| COC(c1cncnc1)(c1ccc(-c2ccc(OCC(F)(F)F)nc2)cc1F)C(C)(C)C (centres unmarked) [Compound 82] | 80 to 100% | 80 to 100% |
